# Data: patent EP0734445B1, “CHIMERIC GENES AND METHODS FOR INCREASING THE LYSINE CONTENT OF THE SEEDS OF CORN, SOYBEAN AND RAPESEED PLANTS” (priority 1993, dated 1995)
# Tests used:
# wild type AKIII = target: T1, wild type AKIII (Escherichia coli, UniProt P08660); experiment: Inhibition of AKIII by lysine; type: biochemical, E. coli
# T1 construct: made in house; host or cells: E. coli (pBT436 in AK-deficient strain Gif106M1)
# Description: (§1) Single colonies of Gif106M1 transformed with pBT436 were picked and resuspended in 200 µL of a mixture of 100 µL 1% lysine plus 100 µL of M9 media. The entire cell suspension containing 10^7-10^8 cells was spread on a petri dish containing M9 media supplemented with the arginine, isoleucine, and ampicillin. Sixteen petri dishes were thus prepared. From 1 to 20 colonies appeared on 11 of the 16 petri dishes. One or two (if available) colonies were picked and retested for lysine resistance and from this nine lysine-resistant clones were obtained. Plasmid DNA was prepared from eight of these and re-transformed into Gif106M1 to determine whether the lysine resistance determinant was plasmid-borne. Six of the eight plasmid DNAs yielded lysine-resistant colonies. Three of these six carried lysC genes encoding AKIII that was uninhibited by 15mM lysine, whereas wild type AKIII is 50% inhibited by 0.3-0.4 mM lysine and >90% inhibited by 1 mM lysine (see Example 2 for details).
# DE126 = experiment: Growth inhibition in synthetic medium; type: cell-based, E. coli
# Excerpt: To select clones that carried the LKR gene a specially designed E. coli host, DE126 was constructed. Construction of DE126 occurred in several stages. • (1) A generalized transducing stock of coliphage Plvir was produced by infection of a culture of TST1 [F^-, araD139, delta (argF-lac) 205, flb5301, ptsF25, relA1, rpsL150, malE52::Tn10, deoC1, λ^-] (E. coli Genetic Stock Center #6137) using a standard method (for Methods see J. Miller, Experiments in Molecular Genetics). • (2) This phage stock was used as a donor in a transductional cross (for Method see J. Miller, Experiments in Molecular Genetics) with strain GIF106M1 [F^-, arg-, ilvA296, lysC1001, thrA1101, metL1000, λ^-, rpsL9, malT1, xyl-7, mtl-2, thi1(?), supE44(?)] (E. coli Genetic Stock Center #5074) as the recipient. Recombinants were selected on rich medium [L supplemented with DAP] containing the antibiotic tetracycline. […] The genes malE and lysC are separated by less than 0.5 minutes, well within cotransduction distance. • (3) 200 tetracycline-resistant transductants were thoroughly phenotyped; appropriate fermentation and nutritional traits were scored. […] The phenotype of one clone was determined to be Ilv^+, Arg^-, TetR, Lysine-sensitive, male specific phage (MS2)-sensitive, consistent with the simple transfer of F'16 from AB1528 to DE125. […]
# [1] = target: T2, AKIII encoded by mutant lysC genes (Escherichia coli, UniProt P08660, T352I); experiment: Inhibition of AKIII by lysine (mutant lysC genes); type: biochemical, E. coli; details: 15mM lysine; three of six mutant lysC plasmids
# T2 construct: made in house; host or cells: E. coli (mutant derivatives of pBT436 selected in Gif106M1; the extract used is not described)
# Description: as §1
# The sequences of the three mutant lysC genes that encoded lysine-insensitive AK each differed from the wild type sequence by a single nucleotide, resulting in a single amino acid substitution in the protein. […] Thus, either of these single amino acid substitutions is sufficient to render the AKIII enzyme insensitive to lysine inhibition.
# [2] = test system: Gif106M1 transformed with pBT436; experiment: Growth inhibition in M9 media; type: cell-based, E. coli; details: M9 media with arginine, isoleucine, ampicillin; reversed by threonine plus methionine
# Description: Addition of lysine (or diaminopimelate which is readily converted to lysine in vivo) at a concentration of approximately 0.2 mM to the growth medium inhibits the growth of Gif106M1 transformed with pBT436. M9 media [see Sambrook et al. (1989) Molecular Cloning: a Laboratory Manual, Cold Spring Harbor Laboratory Press] supplemented with the arginine and isoleucine, required for Gif106M1 growth, and ampicillin, to maintain selection for the pBT436 plasmid, was used. This inhibition is reversed by addition of threonine plus methionine to the growth media. […] This property of pBT436-transformed Gif106M1 was used to select for mutations in lysC that encoded lysine-insensitive AKIII.
# E. coli DHDPS = target: T3, E. coli DHDPS (Escherichia coli, UniProt P0A6L2, F2V); experiment: DHDPS enzyme activity assay; type: biochemical
# T3 construct: An 880 bp Nco I-Kpn I fragment from pBT443 containing the entire ecodapA coding region; made in house; host or cells: E. coli BL21(DE3)/pBT442, supernatant of IPTG-induced extract
# Description: (§2) DHDPS enzyme activity was assayed as follows: Assay mix (for 10 X 1.0 mL assay tubes or 90 X 0.25 mL for microtiter dish); made fresh, just before use:
# (§3) Color allowed to develop for 30-60 min. Precipitate spun down in eppendorf centrifuge. OD540 vs 0 min read as blank. For MicroAssay, aliquot 0.2 mL into microtiter well and read at OD530.
# (§4) The specific activity of E. coli DHDPS in the supernatant fraction of induced extracts was about 50 OD540 units per minute per milligram protein in a 1.0 mL assay. E. coli DHDPS was sensitive to the presence of L-lysine in the assay. Fifty percent inhibition was found at a concentration of about 0.5 mM. For Corynebacterium DHDPS, the activity was measured in the supernatant fraction of uninduced extracts, rather than induced extracts. Enzyme activity was about 4 OD530 units per minute per milligram protein in a 0.25 mL assay.
# Corynebacterium DHDPS = target: T4, Corynebacterium DHDPS (Corynebacterium glutamicum, UniProt P19808, S2A); experiment: DHDPS enzyme activity assay; type: biochemical; details: lysine at 70 mM in the enzyme reaction mix
# T4 construct: An 870 bp Nco I-EcoR I fragment from pFS766 containing the entire cordapA coding region; made in house; host or cells: E. coli BL21(DE3)/pFS766, supernatant of uninduced extract
# Description: as §2, §3, §4
# T3 sequence (P0A6L2 whole entry F2V, the tested form may be a part): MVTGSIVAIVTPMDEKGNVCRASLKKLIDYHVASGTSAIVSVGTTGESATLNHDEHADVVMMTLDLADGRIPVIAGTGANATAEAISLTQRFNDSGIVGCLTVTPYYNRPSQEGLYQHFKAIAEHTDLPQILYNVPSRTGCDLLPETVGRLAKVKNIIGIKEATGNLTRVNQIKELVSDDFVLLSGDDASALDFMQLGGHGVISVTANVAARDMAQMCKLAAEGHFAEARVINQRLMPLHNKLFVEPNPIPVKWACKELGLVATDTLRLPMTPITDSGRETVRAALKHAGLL
# T4 sequence (P19808 whole entry S2A, the tested form may be a part): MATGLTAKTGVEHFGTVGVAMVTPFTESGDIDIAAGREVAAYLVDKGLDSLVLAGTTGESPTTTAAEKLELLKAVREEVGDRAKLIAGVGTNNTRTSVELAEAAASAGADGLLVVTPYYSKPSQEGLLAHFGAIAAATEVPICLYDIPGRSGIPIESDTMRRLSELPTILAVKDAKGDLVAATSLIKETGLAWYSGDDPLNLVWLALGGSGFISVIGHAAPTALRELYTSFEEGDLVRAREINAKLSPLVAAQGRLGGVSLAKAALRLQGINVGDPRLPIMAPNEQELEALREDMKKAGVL
# T1 sequence (P08660 2-449): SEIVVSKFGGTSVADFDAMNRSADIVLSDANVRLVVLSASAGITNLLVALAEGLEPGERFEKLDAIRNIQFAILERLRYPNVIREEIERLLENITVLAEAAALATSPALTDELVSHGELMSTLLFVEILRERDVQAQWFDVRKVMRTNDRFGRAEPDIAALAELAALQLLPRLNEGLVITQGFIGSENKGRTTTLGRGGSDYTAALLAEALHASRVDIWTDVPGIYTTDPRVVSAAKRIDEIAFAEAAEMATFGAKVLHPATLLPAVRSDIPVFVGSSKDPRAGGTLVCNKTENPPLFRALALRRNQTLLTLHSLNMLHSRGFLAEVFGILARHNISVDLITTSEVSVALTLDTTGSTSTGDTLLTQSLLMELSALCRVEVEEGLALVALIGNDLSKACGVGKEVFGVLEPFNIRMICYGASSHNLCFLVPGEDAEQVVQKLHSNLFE
# T2 sequence (P08660 whole entry T352I): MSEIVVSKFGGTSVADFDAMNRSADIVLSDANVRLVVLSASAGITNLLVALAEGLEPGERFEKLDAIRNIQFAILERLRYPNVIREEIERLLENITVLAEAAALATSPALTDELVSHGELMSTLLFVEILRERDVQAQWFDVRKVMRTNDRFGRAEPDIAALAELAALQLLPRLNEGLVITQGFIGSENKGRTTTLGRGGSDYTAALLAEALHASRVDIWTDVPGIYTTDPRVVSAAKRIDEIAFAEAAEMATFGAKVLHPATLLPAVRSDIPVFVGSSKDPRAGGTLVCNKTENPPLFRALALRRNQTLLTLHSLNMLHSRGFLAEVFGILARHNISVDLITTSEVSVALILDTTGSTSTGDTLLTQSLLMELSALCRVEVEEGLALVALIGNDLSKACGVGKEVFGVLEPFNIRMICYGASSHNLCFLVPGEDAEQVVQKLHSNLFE
SMILES,inhibited (wild type AKIII; 1 mM lysine) [%],"IC50 (wild type AKIII; read-out: 50% inhibited, lysine concentration) [µM]",concentration of L-lysine that inhibits growth (DE126) [µg/mL],inhibition by lysine [1],concentration in the growth medium that inhibits growth [2],IC50 (E. coli DHDPS) [µM],"fold less sensitive to inhibition by lysine than a typical plant enzyme, e.g., wheat DHDPS (E. coli DHDPS)",inhibition by L-lysine (Corynebacterium DHDPS),inhibition by L-lysine (Corynebacterium DHDPS; listed as lysine)
NCCCC[C@H](N)C(=O)O [L-lysine],> 90,300 to 400,20,uninhibited,approximately 0.2 mM,~500,at least 20 fold,not inhibited at all,unaffected
NC(CCCC(N)C(=O)O)C(=O)O (stereo not shown) [diaminopimelate],,,,,approximately 0.2 mM,,,,
